Several values for one entry are separate records, joined by “and”; a condition that tells them apart may be missing. Equal entries are not always repeated. Where two headings read alike, the source gives them in different places. Each block holds one compound with its values, some of them ahead of it.
Experiments:
[1] = target: functional uptake of norepinephrine (NE) (Rattus norvegicus, UniProt Q9WTR4); test: Norepinephrine functional uptake assay in rat hypothalamus synaptosomes; assay type: biochemical; settings: [3H]-norepinephrine, 20 minutes at 37° C.
[2] = target: T1, functional uptake of dopamine (DA) (Rattus norvegicus, UniProt P23977); test: Dopamine functional uptake assay in rat striatum synaptosomes; assay type: biochemical; settings: for IC50: rat striatum synaptosomes, [3H]-dopamine, 15 minutes at 37° C.; for inhibition at 10 µM: tested initially at 10 μM in duplicate, read-out: inhibition of DA uptake (no IC50), Table 1
T1 construct: synaptosomes isolated at Cerep in a 0.32 M sucrose buffer from a male Wistar rat striatum; tissue Cerep; host or cells: male Wistar rat striatum synaptosomes

[3] = target: T2, functional uptake of serotonin (5-HT) (Rattus norvegicus, UniProt P31652); test: Serotonin functional uptake assay in rat synaptosomes; assay type: biochemical; settings: for inhibition at 10 µM: tested initially at 10 μM in duplicate
T2 construct: synaptosomes isolated in a 0.32M sucrose buffer from a male Wistar rat cortex; from tissue

[4] = Behavioral Despair Test in Mice; assay type: in vivo; set-up: key to Dunnett, significance vs vehicle: * indicates a significant difference vs vehicle for P < 0.05 (Dunnett test)
[5] = Hamelin et al. 1996; Serebruany et al. 2001; cited from earlier work
[6] = 10 mg/kg, N = 10, E intraperitoneal
[7] = 50 mg/kg intraperitoneal, N = 10

T2 sequence (P31652 whole entry): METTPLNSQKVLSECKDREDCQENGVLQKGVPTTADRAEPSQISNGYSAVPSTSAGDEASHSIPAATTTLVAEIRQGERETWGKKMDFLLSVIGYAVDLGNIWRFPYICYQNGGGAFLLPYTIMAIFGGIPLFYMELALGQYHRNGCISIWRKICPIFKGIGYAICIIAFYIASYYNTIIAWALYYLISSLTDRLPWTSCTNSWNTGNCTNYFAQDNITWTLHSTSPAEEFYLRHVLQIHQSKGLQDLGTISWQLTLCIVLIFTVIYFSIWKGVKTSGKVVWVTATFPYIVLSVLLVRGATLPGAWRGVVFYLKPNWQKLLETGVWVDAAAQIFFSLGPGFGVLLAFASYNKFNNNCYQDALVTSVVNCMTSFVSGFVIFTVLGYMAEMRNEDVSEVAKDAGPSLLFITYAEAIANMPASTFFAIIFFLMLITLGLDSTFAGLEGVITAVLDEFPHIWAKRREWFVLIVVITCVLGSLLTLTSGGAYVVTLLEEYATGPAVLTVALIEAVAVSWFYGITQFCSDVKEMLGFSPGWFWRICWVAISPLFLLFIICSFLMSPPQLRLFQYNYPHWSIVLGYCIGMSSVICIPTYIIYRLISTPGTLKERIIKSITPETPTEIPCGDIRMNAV
T1 sequence (P23977 whole entry): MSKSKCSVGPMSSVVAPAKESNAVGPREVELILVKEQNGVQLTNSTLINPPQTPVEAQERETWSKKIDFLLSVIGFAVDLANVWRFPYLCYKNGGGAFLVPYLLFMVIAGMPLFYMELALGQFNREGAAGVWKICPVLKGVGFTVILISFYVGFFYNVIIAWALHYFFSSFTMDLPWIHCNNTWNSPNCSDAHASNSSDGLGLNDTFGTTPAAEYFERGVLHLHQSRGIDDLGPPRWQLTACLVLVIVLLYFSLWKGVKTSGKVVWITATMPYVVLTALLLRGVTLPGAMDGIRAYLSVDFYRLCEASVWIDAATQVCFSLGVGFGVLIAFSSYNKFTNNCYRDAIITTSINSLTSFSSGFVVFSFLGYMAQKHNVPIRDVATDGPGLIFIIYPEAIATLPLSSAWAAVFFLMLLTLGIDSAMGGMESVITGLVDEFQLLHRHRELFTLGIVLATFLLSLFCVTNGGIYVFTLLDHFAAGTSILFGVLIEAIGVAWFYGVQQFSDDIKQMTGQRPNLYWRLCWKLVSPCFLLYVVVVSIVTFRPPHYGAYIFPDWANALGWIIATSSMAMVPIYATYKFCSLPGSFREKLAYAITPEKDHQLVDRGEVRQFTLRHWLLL

IC50 [1]: 9.6 nM
SMILES: N[C@@H]1CC[C@@H](c2ccc(Cl)c(Cl)c2)c2ccccc21 [P, (1R,4S)-trans 4-(3,4-dichlorophenyl)-1,2,3,4-tetrahydro-1-naphthalenamine]

IC50 [2]: 510 nM
IC50 ([3]; rat synaptosomes, [3H]5-hydroxytryptamine, 15 min at 37° C.): 7500 nM
IC50 [1]: 400 nM
SMILES: O=CN[C@@H]1CC[C@@H](c2ccc(Cl)c(Cl)c2)c2ccccc21 [E, (R,S/S,R) N-[4-(3,4-dichlorophenyl)-1,2,3,4-tetrahydronaphthalen-1-yl]formamide]
Dunnett, significance vs vehicle ([4]; 10 mg/kg, N = 10): *
Immobility Duration (sec.), individual mice [4, 6]: 59 s and 162 s and 131 s and 22 s and 167 s and 58 s and 135 s and 122 s and 164 s and 50 s
Immobility Duration, Mean ± sem [4, 6]: 107 s
Immobility Duration (sec.), individual mice [4, 7]: 15 sec. (2×) and 0 sec. (3×) and 98 sec. and 34 sec. and 59 sec. and 25 sec. and 63 sec.
Immobility Duration, Mean ± sem [4, 7]: 31 s
Dunnett, significance vs vehicle ([4]; 50 mg/kg, N = 10): *

SMILES: N[C@H]1CC[C@@H](c2ccc(Cl)c(Cl)c2)c2ccccc21 [norsertraline, (1S,4S)-cis 4-(3,4-dichlorophenyl)-1,2,3,4-tetrahydro-1-naphthalenamine]
neurological activity as stated in literature reports [5]: neurologically inactive

IC50 [2]: 530 nM
inhibition at 10 µM ([3]; read-out: inhibition of 5-HT uptake (no IC50), Table 3): < 50%
IC50 [1]: 3900 nM
SMILES: O=CN[C@@H]1CC[C@@H](c2ccc(Cl)c(Cl)c2)c2ccccc21 (racemic) [F, N-[4-(3,4-dichlorophenyl)-1,2,3,4-tetrahydronaphthalen-1-yl]formamide]

IC50 [2]: 7.1 nM
IC50 [1]: 8.8 nM
SMILES: N[C@@H]1CC[C@@H](c2ccc(Cl)c(Cl)c2)c2ccccc21 (racemic) [P + Q, trans-4-(3,4-dichlorophenyl)-1,2,3,4-tetrahydro-1-naphthalenamine]

IC50 [1]: 35 nM
SMILES: N[C@H]1CC[C@H](c2ccc(Cl)c(Cl)c2)c2ccccc21 [Q, (1S,4R)-trans 4-(3,4-dichlorophenyl)-1,2,3,4-tetrahydro-1-naphthalenamine]

IC50 [1]: 611 nM
SMILES: CC(NC(C)(C)C)C(=O)c1cccc(Cl)c1 (stereo not drawn) [bupropion, reference compound]

inhibition at 10 µM ([3]; read-out: inhibition of 5-HT uptake (no IC50), Table 1): < 50%
SMILES: Fc1ccc(C(OCCN2CCN(CCCc3ccccc3)CC2)c2ccc(F)cc2)cc1 [GBR 12909, reference compound]

SMILES: CNCCCC1c2ccccc2C=Cc2ccccc21 [protriptyline, reference compound]
inhibition at 10 µM [2]: < 50%

SMILES: CN(C)CCCN1c2ccccc2CCc2ccccc21 [imipramine, reference compound]
inhibition at 10 µM [2]: < 50%
Dunnett, significance vs vehicle ([4]; 10 mg/kg, N = 10): *
Immobility Duration (sec.), individual mice [4, 6]: 28 sec. and 156 sec. and 98 sec. and 0 sec. (2×) and 63 sec. and 30 sec. and 56 sec. and 116 sec. and 64 sec.
Immobility Duration, Mean ± sem [4, 6]: 61 s

From patent publication US10702486B2, “Treatment of CNS disorders with trans 4-(3,4-dichlorophenyl)-1,2,3,4-tetrahydro-1-naphthalenamine” (SUNOVION PHARMACEUTICALS INC., priority 2002, dated 2020)
